Results as given in the supplement of paper PMC8617591.

What was measured:
[1] = test system: Mycobacterium tuberculosis Erdman (autoluminescent); experiment: Einf, fitted maximum growth inhibition of three-drug combination (fraction); higher = stronger maximal inhibition
Description: (§1)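 DiaMOND equipotent three-drug combination dose responses (10 doses, 1.5- or 2-fold spacing, centred on IC90) against autoluminescent M. tuberculosis Erdman in 8 in vitro models. Read-out is OD600, or luminescence for the intracellular and dormancy models, normalised to untreated wells. Hill-fit Einf, AUC25 and GRinf are potency metrics; FIC50 and FIC90 are total Loewe fractional inhibitory concentrations as log2 (negative = synergy).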

[2] = test system: Mycobacterium tuberculosis Erdman (autoluminescent); experiment: total FIC50 (Loewe) at 50% inhibition, three-drug combination (log2); higher = more antagonistic
Description: as §1

[3] = test system: Mycobacterium tuberculosis Erdman (autoluminescent); experiment: AUC25, normalised area under dose response up to IC25 (three-drug combination) (fraction (0-1)); higher = more potent at low dose
Description: as §1

[4] = test system: Mycobacterium tuberculosis Erdman (autoluminescent); experiment: GRinf, maximum normalised growth rate inhibition (three-drug combination) (unitless (-1 to 1)); higher = less effect (negative = killing)
Description: as §1

[5] = test system: Mycobacterium tuberculosis Erdman (autoluminescent); experiment: total FIC90 (Loewe) at 90% inhibition, three-drug combination (log2); higher = more antagonistic
Description: as §1

COc1c(N2C[C@@H]3CCCN[C@@H]3C2)c(F)cc2c(=O)c(C(=O)O)cn(C3CC3)c12 [moxifloxacin] + O=[N+]([O-])c1cn2c(n1)OC[C@@H](OCc1ccc(OC(F)(F)F)cc1)C2 [pretomanid] + NC(=O)c1cnccn1 [pyrazinamide]
Details | AUC25, [3] | Einf, [1] | GRinf, [4] | total FIC50, [2] | total FIC90, [5]
in vitro model: acidic pH 5.7, time point: constant (~7 days, model-specific) | 0.0694 | 0.831 | -0.227 | -0.148 | –
in vitro model: acidic pH 5.7, time point: terminal (~4-5 doublings, model-specific) | 0.0654 | 0.956 | -0.278 | 0.329 | -0.227
in vitro model: intracellular J774, time point: constant = terminal | – | 0.967 | -0.384 | – | 0.419

Details | AUC25, [3] | Einf, [1] | GRinf, [4] | total FIC50, [2] | total FIC90, [5]
in vitro model: butyrate, time point: constant (~7 days, model-specific) | 0.111 | 0.909 | 0.0413 | 0.152 | 1.77
in vitro model: butyrate, time point: terminal (~4-5 doublings, model-specific) | 0.0867 | 0.967 | -0.0495 | 0.235 | 0.86
in vitro model: cholesterol 0.05 mM, time point: constant (~7 days, model-specific) | 0.128 | 0.753 | -0.295 | – | –
in vitro model: cholesterol 0.05 mM, time point: terminal (~4-5 doublings, model-specific) | 0.102 | 0.926 | -0.334 | 1.11 | –
in vitro model: cholesterol-high 0.2 mM, time point: constant (~7 days, model-specific) | 0.0858 | 0.914 | -0.29 | 0.415 | –
in vitro model: cholesterol-high 0.2 mM, time point: terminal (~4-5 doublings, model-specific) | 0.0802 | 1 | -0.594 | 0.654 | 0.481
in vitro model: dormancy (butyrate + nitrate, low O2), time point: constant (~7 days, model-specific) | 0.0852 | 0.871 | 0.199 | 0.104 | -0.0729
in vitro model: dormancy (butyrate + nitrate, low O2), time point: terminal (~4-5 doublings, model-specific) | 0.0687 | 0.982 | -0.232 | 0.195 | 0.876
in vitro model: standard 7H9 glycerol, time point: constant = terminal | 0.071 | 0.972 | -0.151 | – | –
in vitro model: valerate, time point: constant (~7 days, model-specific) | 0.0976 | 0.89 | 0.0242 | -0.452 | –
in vitro model: valerate, time point: terminal (~4-5 doublings, model-specific) | 0.0676 | 0.945 | 0.00495 | 0.11 | -0.163

O=[N+]([O-])c1cn2c(n1)OC[C@@H](OCc1ccc(OC(F)(F)F)cc1)C2 [pretomanid] + CO[C@H]1/C=C/O[C@@]2(C)Oc3c(C)c(O)c4c(O)c(c(/C=N/N5CCN(C6CCCC6)CC5)c(O)c4c3C2=O)NC(=O)/C(C)=C\C=C\[C@H](C)[C@H](O)[C@@H](C)[C@@H](O)[C@@H](C)[C@H](OC(C)=O)[C@@H]1C [rifapentine] + CO[C@H]1/C=C/O[C@@]2(C)Oc3c(C)c(O)c4c(O)c(c(/C=N/N5CCN(C)CC5)c(O)c4c3C2=O)NC(=O)/C(C)=C\C=C\[C@H](C)[C@H](O)[C@@H](C)[C@@H](O)[C@@H](C)[C@H](OC(C)=O)[C@@H]1C [rifampicin]
Details | AUC25, [3] | Einf, [1] | GRinf, [4] | total FIC50, [2] | total FIC90, [5]
in vitro model: acidic pH 5.7, time point: constant (~7 days, model-specific) | 0.0846 | 0.906 | -0.198 | 0.583 | –
in vitro model: acidic pH 5.7, time point: terminal (~4-5 doublings, model-specific) | 0.0433 | 0.982 | -0.177 | 0.863 | 0.271
in vitro model: intracellular J774, time point: constant = terminal | – | 0.998 | -0.321 | – | 0.0281

Details | AUC25, [3] | Einf, [1] | GRinf, [4] | total FIC50, [2] | total FIC90, [5]
in vitro model: butyrate, time point: constant (~7 days, model-specific) | 0.0997 | 0.913 | 0.0188 | 0.122 | -0.618
in vitro model: butyrate, time point: terminal (~4-5 doublings, model-specific) | 0.0845 | 0.963 | -0.00218 | -0.0327 | -0.0222
in vitro model: cholesterol 0.05 mM, time point: constant (~7 days, model-specific) | 0.12 | 0.706 | -0.115 | 0.545 | –
in vitro model: cholesterol 0.05 mM, time point: terminal (~4-5 doublings, model-specific) | 0.0882 | 0.891 | -0.0855 | 0.37 | 0.821
in vitro model: cholesterol-high 0.2 mM, time point: constant (~7 days, model-specific) | 0.0723 | 0.899 | -0.242 | 0.542 | 0.699
in vitro model: cholesterol-high 0.2 mM, time point: terminal (~4-5 doublings, model-specific) | 0.0602 | 0.992 | -0.654 | 0.62 | 0.433
in vitro model: dormancy (butyrate + nitrate, low O2), time point: constant (~7 days, model-specific) | 0.0773 | 0.885 | 0.156 | 0.534 | 0.288
in vitro model: dormancy (butyrate + nitrate, low O2), time point: terminal (~4-5 doublings, model-specific) | 0.0339 | 0.968 | -0.0787 | 0.206 | 0.101
in vitro model: standard 7H9 glycerol, time point: constant = terminal | 0.0607 | 0.906 | 0.057 | 0.0183 | –
in vitro model: valerate, time point: constant (~7 days, model-specific) | 0.0681 | 0.866 | 0.0606 | 0.168 | –
in vitro model: valerate, time point: terminal (~4-5 doublings, model-specific) | 0.0473 | 0.937 | 0.0285 | 0.389 | 0.0371
